# Data as given in US3966715A, “Herbicidal agents” (Bayer Aktiengesellschaft, priority 1966, dated 1976).
# Columns and labels:
# Format in all cases: in vivo
# Oats [1] = assay: Pre-emergence test, oats; conditions: three weeks
# Experimental: (§1) Solvent: 5 parts by weight acetone
# (§2) 1 part by weight benzyloxypolyglycol ether
# (§3) To produce a suitable preparation of the particular active compound, 1 part by weight of such active compound is mixed with the stated amount of solvent, the stated amount of emulsifier is then added and the resulting concentrate is thereafter diluted with water to the desired final concentration.
# (§4) Seeds of the test plants are sown in normal soil and, after 24 hours, watered with the preparation of the given active compound. It is expedient to keep constant the amount of water per unit area. The concentration of the particular active compound in the preparation is of no importance, only the amount of active compound applied per unit area being decisive. After three weeks, the degree of damage to the test plants is determined and characterized by the values 0-5, which have the following meaning:
# (§5) The procedure of Example 1 is repeated, and the particular active compounds tested, the amounts applied, and the results obtained can be seen from the following Table 1D: […]
# Wheat [2] = assay: Post-emergence test, wheat; conditions: three weeks
# Experimental: as §1, §2, §3
# (§6) Test plants which have a height of about 5--15 cm. are sprayed with the preparation of the given active compound until just dew moist. After three weeks, the degree of damage to the plants is determined and characterized by the values 0-5, which have the following meaning:
# (§7) The procedure of Example 2 is repeated, and the particular active compounds tested, and amounts applied, and the results obtained can be seen from the following Table 2E: […]
# Wheat [3] = assay: Pre-emergence test, wheat; conditions: three weeks
# Experimental: as §1, §2, §3, §4, §5
# Cotton = assay: Pre-emergence test, cotton; conditions: three weeks
# Experimental: as §1, §2, §3, §4, §5
# Echinochloa [4] = assay: Pre-emergence test, Echinochloa; conditions: 1.25 kg/hectare, three weeks
# Experimental: as §1, §2, §3, §4, §5
# Oats [5] = assay: Post-emergence test, oats; conditions: three weeks
# Experimental: as §1, §2, §3, §6, §7
# Stellaria = assay: Post-emergence test, Stellaria; conditions: three weeks
# Experimental: as §1, §2, §3, §6, §7
# Echinochloa [6] = assay: Post-emergence test, Echinochloa; conditions: three weeks
# Experimental: as §1, §2, §3, §6, §7
structure (smiles),measurement,setting,value
"CCNc1nnc(-c2ccccc2)c(=O)n1N [Compound 7, 3-ethylamino-4-amino-6-phenyl-1,2,4-triazine-5-one]","degree of damage, Oats",Oats [1]; 2.5 kg/hectare,4-5
"CSc1nnc(CC(C)C)c(=O)n1N [Compound 11, 3-methylthio-4-amino-6-isobutyl-1,2,4-triazine-5-one]","degree of damage, Wheat",Wheat [2]; 2.4 Kg/hectare,4-5
"CN(C)c1nnc(-c2ccccc2)c(=O)n1N [Compound 16, 3-dimethylamino-4-amino-6-phenyl-1,2,4-triazine-5-one]","degree of damage, Wheat",Wheat [3]; 1.25 kg/hectare,4-5
same,"degree of damage, Wheat",Wheat [3]; 2.5 kg/hectare,4-5
same,"degree of damage, Wheat",Wheat [3]; 5 kg/hectare,4-5
same,"degree of damage, Cotton",Cotton; 2.5 kg/hectare,4-5
same,"degree of damage, Echinochloa",Echinochloa [4],4-5
same,"degree of damage, Wheat",Wheat [2]; 1.2 Kg/hectare,4-5
"CCc1nnc(SC)n(N)c1=O [Compound 22, 3-methylthio-4-amino-6-ethyl-1,2,4-triazine-5-one]","degree of damage, Wheat",Wheat [3]; 5 kg/hectare,4-5
same,"degree of damage, Oats",Oats [5]; 1.2 Kg/hectare,4-5
same,"degree of damage, Oats",Oats [5]; 2.4 Kg/hectare,4-5
"CSc1nnc(CCC(C)C)c(=O)n1N [Compound 23, 3-methylthio-4-amino-6-isopentyl-1,2,4-triazine-5-one]","degree of damage, Wheat",Wheat [2]; 2.4 Kg/hectare,4-5
"CCSc1nnc(C(C)C)c(=O)n1N [Compound 148, 3-ethylthio-4-amino-6-isopropyl-1,2,4-triazine-5-one]","degree of damage, Oats",Oats [1]; 1.25 kg/hectare,4-5
same,"degree of damage, Oats",Oats [1]; 2.5 kg/hectare,4-5
same,"degree of damage, Oats",Oats [1]; 5 kg/hectare,4-5
same,"degree of damage, Wheat",Wheat [3]; 1.25 kg/hectare,3-4
same,"degree of damage, Cotton",Cotton; 2.5 kg/hectare,4-5
same,"degree of damage, Cotton",Cotton; 5 kg/hectare,4-5
same,"degree of damage, Wheat",Wheat [2]; 2.4 Kg/hectare,4-5
same,"degree of damage, Stellaria",Stellaria; 2.4 Kg/hectare,4-5
same,"degree of damage, Echinochloa",Echinochloa [6]; 0.6 Kg/hectare,4-5
same,"degree of damage, Echinochloa",Echinochloa [6]; 1.2 Kg/hectare,4-5
"CCCc1nnc(SC)n(N)c1=O [Compound 153, 3-methylthio-4-amino-6-n-propyl-1,2,4-triazine-5-one]","degree of damage, Oats",Oats [1]; 1.25 kg/hectare,4-5
same,"degree of damage, Oats",Oats [1]; 2.5 kg/hectare,4-5
same,"degree of damage, Cotton",Cotton; 1.25 kg/hectare,4-5
same,"degree of damage, Oats",Oats [5]; 2.4 Kg/hectare,4-5
"C#CCSc1nnc(C(C)C)c(=O)n1N [Compound 158, 3-propargylthio-4-amino-6-isopropyl-1,2,4-triazine-5-one]","degree of damage, Stellaria",Stellaria; 1.2 Kg/hectare,4-5
"CNc1nnc(C(C)(C)C)c(=O)n1N [Compound 175, 3-methylamino-4-amino-6-tert.-butyl-1,2,4-triazine-5-one]","degree of damage, Oats",Oats [5]; 0.6 Kg/hectare,4-5
same,"degree of damage, Oats",Oats [5]; 1.2 Kg/hectare,4-5
same,"degree of damage, Wheat",Wheat [2]; 2.4 Kg/hectare,4-5
same,"degree of damage, Echinochloa",Echinochloa [6]; 0.6 Kg/hectare,4-5
same,"degree of damage, Echinochloa",Echinochloa [6]; 1.2 Kg/hectare,4-5
"CCNc1nnc(C(C)(C)C)c(=O)n1N [Compound 176, 3-ethylamino-4-amino-6-tert.-butyl-1,2,4-triazine-5-one]","degree of damage, Stellaria",Stellaria; 0.6 Kg/hectare,4-5
same,"degree of damage, Echinochloa",Echinochloa [6]; 2.4 Kg/hectare,4-5
"CCCNc1nnc(C(C)C)c(=O)n1N [Compound 178, 3-n-propylamino-4-amino-6-isopropyl-1,2,4-triazine-5-one]","degree of damage, Wheat",Wheat [3]; 5 kg/hectare,2-3
"CCCCNc1nnc(C2CCCCC2)c(=O)n1N [Compound 182, 3-n-butylamino-4-amino-6-cyclohexyl-1,2,4-triazine-5-one]","degree of damage, Oats",Oats [1]; 40 Kg/hectare,4-5
same,"degree of damage, Wheat",Wheat [3]; 40 Kg/hectare,4-5
same,"degree of damage, Echinochloa",Echinochloa [6]; 10 Kg/hectare,4-5
"CSc1nnc(C(C)(C)C)c(=O)n1NC(O)C(Cl)(Cl)Cl (stereo not drawn) [Compound 192, 3-methylthio-4-(β-trichloro-α-hydroxy-ethyl)-amino-6-tert.-butyl-1,2,4-triazine-5-one]","degree of damage, Oats",Oats [1]; 1.25 kg/hectare,4-5
same,"degree of damage, Oats",Oats [1]; 2.5 kg/hectare,4-5
same,"degree of damage, Cotton",Cotton; 1.25 kg/hectare,4-5
same,"degree of damage, Cotton",Cotton; 2.5 kg/hectare,4-5
same,"degree of damage, Oats",Oats [5]; 2.4 Kg/hectare,4-5
"CSc1nnc(C(C)C)c(=O)n1N=CC1CCCCC1 [Compound 197, 3-methylthio-4-(hexahydrobenzylidene-amino)-6-isopropyl-1,2,4-triazine-5-one]","degree of damage, Wheat",Wheat [3]; 1.25 kg/hectare,4-5
same,"degree of damage, Wheat",Wheat [2]; 1.2 Kg/hectare,4-5
same,"degree of damage, Echinochloa",Echinochloa [6]; 1.2 Kg/hectare,4-5
"CSc1nnc(C(C)C)c(=O)n1N=Cc1ccccc1 [Compound 198, 3-methylthio-4-(benzylidene-amino)-6-isopropyl-1,2,4-trizaine-5-one]","degree of damage, Wheat",Wheat [3]; 1.25 kg/hectare,4-5
same,"degree of damage, Oats",Oats [5]; 0.6 Kg/hectare,3-4
same,"degree of damage, Oats",Oats [5]; 2.4 Kg/hectare,4-5
same,"degree of damage, Stellaria",Stellaria; 0.6 Kg/hectare,4-5
"CSc1nnc(C(C)C)c(=O)n1N=Cc1ccc(Cl)cc1 [Compound 201, 3-methylthio-4-(4'-chloro-benzylidene-amino)-6-isopropyl-1,2,4-triazine-5-one]","degree of damage, Wheat",Wheat [3]; 1.25 kg/hectare,4-5
same,"degree of damage, Stellaria",Stellaria; 1.2 Kg/hectare,4-5
same,"degree of damage, Echinochloa",Echinochloa [6]; 1.2 Kg/hectare,4-5
"CSc1nnc(C(C)C)c(=O)n1N=Cc1ccco1 [Compound 203, 3-methylthio-4-(furfur-2'-ylidene-amino)-6-isopropyl-1,2,4-triazine-5-one]","degree of damage, Cotton",Cotton; 1.25 kg/hectare,4-5
same,"degree of damage, Wheat",Wheat [2]; 1.2 Kg/hectare,4-5
same,"degree of damage, Stellaria",Stellaria; 2.4 Kg/hectare,4-5
"CSc1nnc(C(C)C)c(=O)n1N=C1CCCCC1 [Compound 204, 3-methylthio-4-(cyclohexylidene-amino)-6-isopropyl-1,2,4-triazine-5-one]","degree of damage, Wheat",Wheat [3]; 1.25 kg/hectare,4-5
same,"degree of damage, Stellaria",Stellaria; 0.6 Kg/hectare,4-5
"CSc1nnc(C(C)C)c(=O)n1N=Cc1ccccc1C [Compound 206, 3-methylthio-4-(2'-methyl-benzylidene-amino)-6-isopropyl-1,2,4-triazine-5-one]","degree of damage, Cotton",Cotton; 1.25 kg/hectare,4-5
same,"degree of damage, Oats",Oats [5]; 2.4 Kg/hectare,4-5
same,"degree of damage, Wheat",Wheat [2]; 1.2 Kg/hectare,3-4
same,"degree of damage, Stellaria",Stellaria; 0.6 Kg/hectare,4-5
"CSc1nnc(C(C)C)c(=O)n1N=Cc1ccc([N+](=O)[O-])cc1 [Compound 210, 3-methylthio-4-(4'-nitro-benzylidene-amino)-6-isopropyl-1,2,4-triazine-5-one]","degree of damage, Oats",Oats [1]; 2.5 kg/hectare,4-5
same,"degree of damage, Oats",Oats [1]; 5 kg/hectare,4-5
same,"degree of damage, Cotton",Cotton; 2.5 kg/hectare,4-5
same,"degree of damage, Cotton",Cotton; 5 kg/hectare,4-5
"CSc1nnc(C(C)C)c(=O)n1N=Cc1ccc(C)cc1 [Compound 213, 3-methylthio-4-(4'-methyl-benzylidene-amino)-6-isopropyl-1,2,4-triazine-5-one]","degree of damage, Oats",Oats [1]; 1.25 kg/hectare,4-5
same,"degree of damage, Oats",Oats [1]; 2.5 kg/hectare,4-5
same,"degree of damage, Cotton",Cotton; 2.5 kg/hectare,4-5
same,"degree of damage, Cotton",Cotton; 5 kg/hectare,4-5
same,"degree of damage, Echinochloa",Echinochloa [4],4-5
same,"degree of damage, Oats",Oats [5]; 1.2 Kg/hectare,3-4
same,"degree of damage, Oats",Oats [5]; 2.4 Kg/hectare,4-5
same,"degree of damage, Wheat",Wheat [2]; 0.6 Kg/hectare,2-3
same,"degree of damage, Wheat",Wheat [2]; 1.2 Kg/hectare,3-4
same,"degree of damage, Stellaria",Stellaria; 0.6 Kg/hectare,4-5
same,"degree of damage, Echinochloa",Echinochloa [6]; 0.6 Kg/hectare,4-5
"CSc1nnc(C(C)(C)C)c(=O)n1N=CC(C)C [Compound 215, 3-methylthio-4-(isobutylidene-amino)-6-tert.-butyl-1,2,4-triazine-5-one]","degree of damage, Wheat",Wheat [2]; 1.2 Kg/hectare,4-5
"CCC=Nn1c(SC)nnc(C(C)C)c1=O [Compound 216, 3-methylthio-4-(n-propylidene-amino)-6-isopropyl-1,2,4-triazine-5-one]","degree of damage, Wheat",Wheat [3]; 1.25 kg/hectare,4-5
"CCCC=Nn1c(SC)nnc(C(C)C)c1=O [Compound 217, 3-methylthio-4-(n-butylidene-amino)-6-isopropyl-1,2,4-triazine-5-one]","degree of damage, Wheat",Wheat [3]; 1.25 kg/hectare,4-5
"CSc1nnc(C(C)(C)C)c(=O)n1N=C(C)C [Compound 220, 3-methylthio-4-(prop-2'-ylidene-amino)-6-tert.-butyl-1,2,4-triazine-5-one]","degree of damage, Wheat",Wheat [3]; 1.25 kg/hectare,4-5
"CSc1nnc(C2CCCCC2)c(=O)n1N=C(C)C [Compound 224, 3-methylthio-4-(prop-2'-ylidene-amino)-6-cyclohexyl-1,2,4-triazine-5-one]","degree of damage, Wheat",Wheat [3]; 1.25 kg/hectare,4-5
same,"degree of damage, Oats",Oats [5]; 1.2 Kg/hectare,4-5
same,"degree of damage, Wheat",Wheat [2]; 1.2 Kg/hectare,4-5
same,"degree of damage, Wheat",Wheat [2]; 2.4 Kg/hectare,4-5
"CSc1nnc(C2CCCCC2)c(=O)n1N=Cc1ccccc1 [Compound 225, 3-methylthio-4-(benzylidene-amino)-6-cyclohexyl-1,2,4-triazine-5-one]","degree of damage, Cotton",Cotton; 2.5 kg/hectare,4-5
same,"degree of damage, Echinochloa",Echinochloa [4],4-5
same,"degree of damage, Oats",Oats [5]; 2.4 Kg/hectare,4-5
same,"degree of damage, Wheat",Wheat [2]; 0.6 Kg/hectare,3-4
same,"degree of damage, Echinochloa",Echinochloa [6]; 0.6 Kg/hectare,4-5
"CSc1nnc(C2CCCCC2)c(=O)n1N=CC1CCCCC1 [Compound 228, 3-methylthio-4-(hexahydrobenzylidene-amino)-6-cyclohexyl-1,2,4-triazine-5-one]","degree of damage, Oats",Oats [1]; 5 kg/hectare,4-5
same,"degree of damage, Wheat",Wheat [3]; 5 kg/hectare,4-5
same,"degree of damage, Oats",Oats [5]; 1.2 Kg/hectare,4-5
same,"degree of damage, Wheat",Wheat [2]; 0.6 Kg/hectare,4-5
same,"degree of damage, Wheat",Wheat [2]; 1.2 Kg/hectare,4-5
same,"degree of damage, Echinochloa",Echinochloa [6]; 0.6 Kg/hectare,4-5
"CSc1nnc(C2CCCCC2)c(=O)n1N=CC(C)C [Compound 229, 3-methylthio-4-(isobutylidene-amino)-6-cyclohexyl-1,2,4-triazine-5-one]","degree of damage, Oats",Oats [1]; 2.5 kg/hectare,4-5
same,"degree of damage, Wheat",Wheat [3]; 5 kg/hectare,4-5
same,"degree of damage, Cotton",Cotton; 5 kg/hectare,4-5
same,"degree of damage, Echinochloa",Echinochloa [4],4-5
"CNc1nnc(C(C)(C)C)c(=O)n1N=C(C)C [Compound 232, 3-methylamino-4-(prop-2'-ylidene-amino)-6-tert.-butyl-1,2,4-triazine-5-one]","degree of damage, Oats",Oats [1]; 1.25 kg/hectare,4-5
same,"degree of damage, Wheat",Wheat [2]; 1.2 Kg/hectare,4-5
"CNn1c(OC)nnc(-c2ccccc2)c1=O [Compound 234, 3-methoxy-4-methylamino-6-phenyl-1,2,4-triazine-5-one]","degree of damage, Oats",Oats [1]; 5 kg/hectare,4-5
